Test results: patent US10899758B2, “Inhibitors of the menin-MLL interaction” (Vitae Pharmaceuticals, LLC, priority 2016, dated 2021)
Like-named read-outs stand apart in the source and are kept apart here.

Legend:
[1] = target: T1, menin/MLL binding (biotinylated wild-type or mutated menin and MLL-AF9 fusion protein) (Homo sapiens, UniProt O00255); experiment: Assay 1 (Binding Assay): AlphaLISA menin/MLL binding; conditions: 5 nM biotinylated menin, MLL-AF9-FLAG lysate
T1 construct: biotinylated (1) wild-type menin or (2) mutated menin (described in Nature (2012) Vol. 482, pp. 542-548); fused on or other part: Biotin attached chemically (Sulfo-NHS-Biotin); no fused second protein is printed for menin
T1 sequence (O00255 1-459 limits assumed): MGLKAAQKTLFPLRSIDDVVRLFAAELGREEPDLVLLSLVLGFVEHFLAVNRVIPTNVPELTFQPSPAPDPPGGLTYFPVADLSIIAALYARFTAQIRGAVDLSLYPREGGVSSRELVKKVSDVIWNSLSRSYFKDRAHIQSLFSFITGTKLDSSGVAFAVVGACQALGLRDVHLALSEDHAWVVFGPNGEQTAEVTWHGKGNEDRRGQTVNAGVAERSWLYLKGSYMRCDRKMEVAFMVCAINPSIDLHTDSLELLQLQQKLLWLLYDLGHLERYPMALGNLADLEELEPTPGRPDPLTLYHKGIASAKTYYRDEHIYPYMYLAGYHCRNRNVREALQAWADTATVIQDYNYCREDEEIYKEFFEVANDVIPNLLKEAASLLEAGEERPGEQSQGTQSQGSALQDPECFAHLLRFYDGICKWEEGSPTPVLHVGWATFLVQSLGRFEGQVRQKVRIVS
Outline: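 Biotinylated E. coli-expressed menin (wild-type or mutant), 5 nM, incubated 30 min RT with compound and HEK293 lysate of MLL1-1,396–AF9-FLAG in pH 7.4 Tris buffer, 5% DMSO, 1 mM DTT. Anti-FLAG acceptor and streptavidin donor beads added, 60 min RT, AlphaLISA signal read. IC50 from four-parameter fit of % inhibition.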

[2] = tested on: human acute monocytic leukemia cell line MV-4-11; experiment: Assay 2 (Cell Proliferation Assay), ATP quantitation (CellTiter-Glo); format: cell-based; conditions: MV-4-11 cells, read-out: Assay 2 (EC50, inhibition of cell proliferation)
Method: Potencies of inhibitor compounds against cell proliferation was assessed against the human acute monocytic leukemia cell line MV-4-11 (ATCC® CRL-9591™) based on ATP quantitation. MV-4-11 cells or toxicity control HL-60 cells (ATCC® CCL-240™) were incubated in 96-well tissue culture plates (1.67×10^4 cells in 200 μL culture media containing 10% FBS per well) with or without test compound for 72 h at 37° C., 5% CO2. After incubation, each well was mixed by pipetting and 95 μL from each well was transferred to a well in 96-well black OptiPlate® plates (PerkinElmer). An equal volume of CellTiter-Glo® Luminescent Cell Viability Assay reagent (Promega) was added to each well, followed by mixing for 5 min on an orbital plate shaker. Luminescence was measured on a Wallac EnVision 2104 Multilabel Reader (PerkinElmer) to quantitate ATP. Percent inhibition of cell proliferation by test compounds was calculated based on uninhibited cell growth (DMSO) versus cells treated with a potent menin inhibitor at a concentration yielding at least 100×LD50.

Molecule `CC(C)N(C)C(=O)c1cc(F)ccc1-n1cc(C2CCC(N(C)C)CC2)c2ccncc21` (single isomer, unassigned) [Example 54, 2-(3-(4-(dimethylamino)cyclohexyl)-1H-pyrrolo[2,3-c]pyridin-1-yl)-5-fluoro-N-isopropyl-N-methylbenzamide] has an IC50 [1] of less than 100 nM and an EC50 ([2]; Homo sapiens, MV4-11, 72 h) of no less than 1000 nM.
`CC(C)N(C)C(=O)c1cc(F)ccc1-n1cc(C2CCC(N(C)C)CC2)c2ccncc21` (single isomer, unassigned) [Example 54A, 2-(3-(4-(dimethylamino)cyclohexyl)-1H-pyrrolo[2,3-c]pyridin-1-yl)-5-fluoro-N-isopropyl-N-methylbenzamide] showed an IC50 [1] of 100 to 1000 nM and an EC50 ([2]; 72 h) of no less than 1000 nM.
`CC(C)N(C)C(=O)c1cc(F)ccc1-n1cc(C2CCC(NCc3ccc4[nH]c(=O)[nH]c4c3)CC2)c2ccncc21` (single isomer, unassigned) [Example 60, 5-fluoro-N-isopropyl-N-methyl-2-(3-(4-(((2-oxo-2,3-dihydro-1H-benzo[d]imidazol-5-yl)methyl)amino)cyclohexyl)-1H-pyrrolo[2,3-c]pyridin-1-yl)benzamide] showed an IC50 [1] of less than 100 nM and an EC50 ([2]; 72 h) of 100 to 1000 nM.
For `CC(C)N(C)C(=O)c1cc(F)ccc1-n1cc(C2CCC(NCc3ccc4[nH]c(=O)[nH]c4c3)CC2)c2ccncc21` (single isomer, unassigned) [Example 60A, 5-fluoro-N-isopropyl-N-methyl-2-(3-(4-(((2-oxo-2,3-dihydro-1H-benzo[d]imidazol-5-yl)methyl)amino)cyclohexyl)-1H-pyrrolo[2,3-c]pyridin-1-yl)benzamide], the IC50 [1] was less than 100 nM and the EC50 ([2]; 72 h) was no less than 1000 nM.
With `CC(C)N(C)C(=O)c1cc(F)ccc1-n1cc(C2CCC(NCC3CCC(NS(C)(=O)=O)CC3)CC2)c2ccncc21` (single isomer, unassigned) [Example 61, 5-fluoro-N-isopropyl-N-methyl-2-(3-(4-(((4-(methylsulfonamido)cyclohexyl)methyl)amino)cyclohexyl)-1H-pyrrolo[2,3-c]pyridin-1-yl)benzamide] the IC50 [1] was less than 100 nM and the EC50 ([2]; 72 h) was 100 to 1000 nM.
`CC(C)N(C)C(=O)c1cc(F)ccc1-n1cc(C2CCC(NCC3CCC(NS(C)(=O)=O)CC3)CC2)c2ccncc21` (single isomer, unassigned) [Example 62, 5-fluoro-N-isopropyl-N-methyl-2-(3-(4-(((4-(methylsulfonamido)cyclohexyl)methyl)amino)cyclohexyl)-1H-pyrrolo[2,3-c]pyridin-1-yl)benzamide] gave an IC50 [1] of less than 100 nM and an EC50 ([2]; 72 h) of no less than 1000 nM.
In the case of `CC(C)N(C)C(=O)c1cc(F)ccc1-n1cc(C2CCC(N(C)CC3CCC(NS(C)(=O)=O)CC3)CC2)c2ccncc21` (single isomer, unassigned) [Example 128, 5-fluoro-N-isopropyl-N-methyl-2-(3-(4-(methyl((4-(methylsulfonamido)cyclohexyl)methyl)amino)cyclohexyl)-1H-pyrrolo[2,3-c]pyridin-1-yl)benzamide], the IC50 [1] is reported as less than 100 nM and the EC50 ([2]; Homo sapiens, MV4-11, 72 h) is reported as less than 100 nM.
Work on `Cc1c(CN2CCC(c3cn(-c4ccc(F)cc4C(=O)N(C)C(C)C)c4cnccc34)CC2)ccc2[nH]c(C#N)cc12` [Example 2, 2-(3-(1-((2-cyano-4-methyl-1H-indol-5-yl)methyl)piperidin-4-yl)-1H-pyrrolo[2,3-c]pyridin-1-yl)-5-fluoro-N-isopropyl-N-methylbenzamide] yielded an IC50 [1] of less than 100 nM and an EC50 ([2]; Homo sapiens, MV4-11, 72 h) of less than 100 nM.
`CC(C)N(C)C(=O)c1cc(F)ccc1-n1cc(C2CCN(CC3CCOCC3)CC2)c2ccncc21` [Example 4, 5-fluoro-N-isopropyl-N-methyl-2-(3-(1-((tetrahydro-2H-pyran-4-yl)methyl)piperidin-4-yl)-1H-pyrrolo[2,3-c]pyridin-1-yl)benzamide] showed an IC50 [1] of less than 100 nM and an EC50 ([2]; Homo sapiens, MV4-11, 72 h) of no less than 1000 nM.
Molecule `CC(C)N(C)C(=O)c1cc(F)ccc1-n1cc(C2CCN(Cc3ccc4[nH]c(=O)[nH]c4c3)CC2)c2ccncc21` [Example 5, 5-fluoro-N-isopropyl-N-methyl-2-(3-(1-((2-oxo-2,3-dihydro-1H-benzo[d]imidazol-5-yl)methyl)piperidin-4-yl)-1H-pyrrolo[2,3-c]pyridin-1-yl)benzamide] has an IC50 [1] of less than 100 nM and an EC50 ([2]; Homo sapiens, MV4-11, 72 h) of 100 to 1000 nM.
Work on `CC(C)N(C)C(=O)c1cc(F)ccc1-n1cc(C2CCN(CCC3CCOCC3)CC2)c2ccncc21` [Example 6, 5-fluoro-N-isopropyl-N-methyl-2-(3-(1-(2-(tetrahydro-2H-pyran-4-yl)ethyl)piperidin-4-yl)-1H-pyrrolo[2,3-c]pyridin-1-yl)benzamide] yielded an IC50 [1] of less than 100 nM and an EC50 ([2]; Homo sapiens, MV4-11, 72 h) of 100 to 1000 nM.
`CC(C)N(C)C(=O)c1cc(F)ccc1-n1cc(C2CCN(Cc3ccc4[nH]c(C#N)cc4c3)CC2)c2ccncc21` [Example 7, 2-(3-(1-((2-cyano-1H-indol-5-yl)methyl)piperidin-4-yl)-1H-pyrrolo[2,3-c]pyridin-1-yl)-5-fluoro-N-isopropyl-N-methylbenzamide] showed an IC50 [1] of less than 100 nM and an EC50 ([2]; Homo sapiens, MV4-11, 72 h) of less than 100 nM.
`CC(C)N(C)C(=O)c1cc(F)ccc1-n1cc(C2CCN(Cc3ccc4cc(C#N)[nH]c4c3)CC2)c2ccncc21` [Example 8, 2-(3-(1-((2-cyano-1H-indol-6-yl)methyl)piperidin-4-yl)-1H-pyrrolo[2,3-c]pyridin-1-yl)-5-fluoro-N-isopropyl-N-methylbenzamide] was tested, and the IC50 [1] was less than 100 nM and the EC50 ([2]; Homo sapiens, MV4-11, 72 h) was less than 100 nM.
`CC(C)N(C)C(=O)c1cc(F)ccc1-n1cc(C2CCN(Cc3ccc(F)cc3)CC2)c2ccncc21` [Example 9, 5-fluoro-2-(3-(1-(4-fluorobenzyl)piperidin-4-yl)-1H-pyrrolo[2,3-c]pyridin-1-yl)-N-isopropyl-N-methylbenzamide] gave an IC50 [1] of less than 100 nM and an EC50 ([2]; Homo sapiens, MV4-11, 72 h) of 100 to 1000 nM.
`CC(C)N(C)C(=O)c1cc(F)ccc1-n1cc(C2CCN(Cc3ccc(Cl)cc3)CC2)c2ccncc21` [Example 10, 2-(3-(1-(4-chorobenzyl)piperidin-4-yl)-1H-pyrrolo[2,3-c]pyridin-1-yl)-5-fluoro-N-isopropyl-N-methylbenzamide] gave an IC50 [1] of less than 100 nM and an EC50 ([2]; Homo sapiens, MV4-11, 72 h) of 100 to 1000 nM.
`CC(C)N(C)C(=O)c1cc(F)ccc1-n1cc(C2CCN(Cc3ccc(C#N)cc3)CC2)c2ccncc21` [Example 12, 2-(3-(1-(4-cyanobenzyl)piperidin-4-yl)-1H-pyrrolo[2,3-c]pyridin-1-yl)-5-fluoro-N-isopropyl-N-methylbenzamide] was tested, and the IC50 [1] was less than 100 nM and the EC50 ([2]; Homo sapiens, MV4-11, 72 h) was 100 to 1000 nM.
For `Cc1ccccc1CN1CCC(c2cn(-c3ccc(F)cc3C(=O)N(C)C(C)C)c3cnccc23)CC1` [Example 14, 5-fluoro-N-isopropyl-N-methyl-2-(3-(1-(2-methylbenzyl)piperidin-4-yl)-1H-pyrrolo[2,3-c]pyridin-1-yl)benzamide], the IC50 [1] was less than 100 nM and the EC50 ([2]; Homo sapiens, MV4-11, 72 h) was 100 to 1000 nM.
In the case of `CC(C)N(C)C(=O)c1cc(F)ccc1-n1cc(C2CCN(Cc3ccccc3Cl)CC2)c2ccncc21` [Example 15, 2-(3-(1-(2-chlorobenzyl)piperidin-4-yl)-1H-pyrrolo[2,3-c]pyridin-1-yl)-5-fluoro-N-isopropyl-N-methylbenzamide], the IC50 [1] is reported as less than 100 nM and the EC50 ([2]; Homo sapiens, MV4-11, 72 h) is reported as 100 to 1000 nM.
`CC(C)N(C)C(=O)c1cc(F)ccc1-n1cc(C2CCN(CC3CC(F)(F)C3)CC2)c2ccncc21` [Example 16, 2-(3-(1-((3,3-difluorocyclobutyl)methyl)piperidin-4-yl)-1H-pyrrolo[2,3-c]pyridin-1-l)-5-fluoro-N-isopropyl-N-methylbenzamide] was tested, and the IC50 [1] was less than 100 nM and the EC50 ([2]; Homo sapiens, MV4-11, 72 h) was 100 to 1000 nM.
Work on `CC(=O)N[C@H]1CC[C@H](CCN2CCC(c3cn(-c4ccc(F)cc4C(=O)N(C)C(C)C)c4cnccc34)CC2)CC1` [Example 18, 2-(3-(1-(2-(trans-4-acetamidocyclohexyl)ethyl)piperidin-4-yl)-1H-pyrrolo[2,3-c]pyridin-1-yl)-5-fluoro-N-isopropyl-N-methylbenzamide] yielded an IC50 [1] of less than 100 nM and an EC50 ([2]; Homo sapiens, MV4-11, 72 h) of 100 to 1000 nM.
In the case of `CC(C)N(C)C(=O)c1cc(F)ccc1-n1cc(C2CCN(CC[C@H]3CC[C@H](NC(=O)OC(C)(C)C)CC3)CC2)c2ccncc21` [Example 18A, tert-butyl (trans-4-(2-(4-(1-(4-fluoro-2-(isopropyl(methyl)carbamoyl)phenyl)-1H-pyrrolo[2,3-c]pyridin-3-yl)piperidin-1-yl)ethyl)cyclohexyl)carbamate], the IC50 [1] is reported as less than 100 nM and the EC50 ([2]; Homo sapiens, MV4-11, 72 h) is reported as 100 to 1000 nM.
